From patent US9982017B2, “Synthetic apelin mimetics for the treatment of heart failure” (priority 2012, dated 2018) come the findings set out here.

Where a SMILES comes first, the peptide text is derived from it. Bridges are numbered along the chain shown (N, C = ends). [ ]: non-standard residue; d: D form. ξ: configuration not given here. Bip = N[C@@H](Cc1ccc(-c2ccccc2)cc1)C(=O)O; 3Pal = N[C@@H](Cc1cccnc1)C(=O)O; pGlu = O=C1CC[C@@H](C(=O)O)N1; Nle = CCCC[C@H](N)C(=O)O; ξPip = O=C(O)C1CCCCN1

This data set can be described thus: in vitro. Particulars: rat, not told, Surrogate activity-based Plasma stability t½.

As for `CCCC[C@@H]1NC(=O)[C@@H]2CCCN2C(=O)CNC(=O)[C@H](CCCCN)NC(=O)[C@H](Cc2c[nH]cn2)NC(=O)[C@@H](NC(=O)[C@H](CC(C)C)NC(=O)[C@H](CCCNC(=N)N)NC(=O)[C@@H]2CCCN2C(=O)[C@@H](CCCNC(=N)N)NC(=O)[C@@H]2CCC(=O)N2)CSSC[C@@H](C(=O)N[C@@H](Cc2ccccc2)C(=O)O)NC1=O` [Example 30, pE-r-P-R-L-C-H-K-G-P-Nle-C-F-OH] ([pGlu][dR]PRLCHKGP[Nle]CF-OH; disulfide 6-12), the half-life was more than 16.7 h.
For the compound `CCCC[C@@H]1NC(=O)[C@@H]2CCCN2C(=O)CNC(=O)[C@H](CCCCN)NC(=O)[C@H](Cc2c[nH]cn2)NC(=O)[C@@H](NC(=O)[C@H](CC(C)C)NC(=O)[C@H](CCCNC(=N)N)NC(=O)[C@@H]2CCCN2C(=O)[C@H](Cc2ccccc2)NC(=O)[C@@H]2CCC(=O)N2)CSSC[C@@H](C(=O)N[C@@H](Cc2ccccc2)C(=O)O)NC1=O` [Example 31, pE-F-P-R-L-C-H-K-G-P-Nle-C-F-OH] ([pGlu]FPRLCHKGP[Nle]CF-OH; disulfide 6-12), the half-life was more than 16.7 h.
The compound `CCCC[C@@H]1NC(=O)[C@@H]2CCCN2C(=O)CNC(=O)[C@H](CCCCN)NC(=O)[C@H](Cc2c[nH]cn2)NC(=O)[C@@H](NC(=O)[C@H](CC(C)C)NC(=O)[C@H](CCCNC(=N)N)NC(=O)[C@@H]2CCCN2C(=O)[C@H](CCC(=O)O)NC(=O)[C@@H]2CCC(=O)N2)CSSC[C@@H](C(=O)N[C@@H](Cc2ccccc2)C(=O)O)NC1=O` [Example 32, pE-E-P-R-L-C-H-K-G-P-Nle-C-F-OH] ([pGlu]EPRLCHKGP[Nle]CF-OH; disulfide 6-12) showed a half-life of more than 16.7 h.
`CCCC[C@@H]1NC(=O)[C@@H]2CCCN2C(=O)CNC(=O)[C@H](CCCCN)NC(=O)[C@H](Cc2c[nH]cn2)NC(=O)[C@@H](NC(=O)[C@H](CC(C)C)NC(=O)[C@H](CCCNC(=N)N)NC(=O)[C@H]2CCCN2C(=O)[C@H](CCCNC(=N)N)NC(=O)[C@@H]2CCC(=O)N2)CSSC[C@@H](C(=O)N[C@@H](Cc2ccccc2)C(=O)O)NC1=O` [Example 33, pE-R-p-R-L-C-H-K-G-P-Nle-C-F-OH] ([pGlu]R[dP]RLCHKGP[Nle]CF-OH; disulfide 6-12): the half-life is more than 16.7 h.
For the compound `CCCC[C@@H]1NC(=O)[C@@H]2CCCN2C(=O)CNC(=O)[C@H](CCCCN)NC(=O)[C@H](Cc2c[nH]cn2)NC(=O)[C@@H](NC(=O)[C@H](CC(C)C)NC(=O)[C@H](CCCNC(=N)N)NC(=O)[C@H](CCCCN)NC(=O)[C@H](CCCNC(=N)N)NC(=O)[C@@H]2CCC(=O)N2)CSSC[C@@H](C(=O)N[C@@H](Cc2ccccc2)C(=O)O)NC1=O` [Example 34, pE-R-K-R-L-C-H-K-G-P-Nle-C-F-OH] ([pGlu]RKRLCHKGP[Nle]CF-OH; disulfide 6-12), the half-life turned out to be 8.42 h.
Consider `CCCC[C@@H]1NC(=O)[C@@H]2CCCN2C(=O)CNC(=O)[C@H](CCCCN)NC(=O)[C@H](Cc2c[nH]cn2)NC(=O)[C@@H](NC(=O)[C@H](CC(C)C)NC(=O)[C@H](CCCNC(=N)N)NC(=O)[C@H](CC(=O)O)NC(=O)[C@H](CCCNC(=N)N)NC(=O)[C@@H]2CCC(=O)N2)CSSC[C@@H](C(=O)N[C@@H](Cc2ccccc2)C(=O)O)NC1=O` [Example 35, pE-R-D-R-L-C-H-K-G-P-Nle-C-F-OH] ([pGlu]RDRLCHKGP[Nle]CF-OH; disulfide 6-12), for which the half-life is more than 16.7 h.
Then `CCCC[C@@H]1NC(=O)[C@@H]2CCCN2C(=O)CNC(=O)[C@H](CCCCN)NC(=O)[C@H](Cc2c[nH]cn2)NC(=O)[C@@H](NC(=O)[C@H](CC(C)C)NC(=O)[C@H](Cc2ccccc2)NC(=O)[C@@H]2CCCN2C(=O)[C@H](CCCNC(=N)N)NC(=O)[C@@H]2CCC(=O)N2)CSSC[C@@H](C(=O)N[C@@H](Cc2ccccc2)C(=O)O)NC1=O` [Example 36, pE-R-P-F-L-C-H-K-G-P-Nle-C-F-OH] ([pGlu]RPFLCHKGP[Nle]CF-OH; disulfide 6-12), with more than 16.7 h.
In turn, `CCCC[C@@H]1NC(=O)[C@@H]2CCCN2C(=O)CNC(=O)[C@H](CCCCN)NC(=O)[C@H](Cc2c[nH]cn2)NC(=O)[C@@H](NC(=O)[C@H](CCCCN)NC(=O)[C@H](CCCNC(=N)N)NC(=O)[C@@H]2CCCN2C(=O)[C@H](CCCNC(=N)N)NC(=O)[C@@H]2CCC(=O)N2)CSSC[C@@H](C(=O)N[C@@H](Cc2ccccc2)C(=O)O)NC1=O` [Example 37, pE-R-P-R-K-C-H-K-G-P-Nle-C-F-OH] ([pGlu]RPRKCHKGP[Nle]CF-OH; disulfide 6-12) displayed a half-life of 2.74 h.
`CCCC[C@@H]1NC(=O)[C@@H]2CCCN2C(=O)CNC(=O)[C@H](CCC(=O)O)NC(=O)[C@H](Cc2c[nH]cn2)NC(=O)[C@@H](NC(=O)[C@H](CC(C)C)NC(=O)[C@H](CCCNC(=N)N)NC(=O)[C@@H]2CCCN2C(=O)[C@H](CCCNC(=N)N)NC(=O)[C@@H]2CCC(=O)N2)CSSC[C@@H](C(=O)N[C@@H](Cc2ccccc2)C(=O)O)NC1=O` [Example 38, pE-R-P-R-L-C-H-E-G-P-Nle-C-F-OH] ([pGlu]RPRLCHEGP[Nle]CF-OH; disulfide 6-12): the half-life is more than 16.7 h.
As to `CCCC[C@@H]1NC(=O)[C@@H]2CCCN2C(=O)[C@H](CC(=O)O)NC(=O)[C@H](CCCCN)NC(=O)[C@H](Cc2c[nH]cn2)NC(=O)[C@@H](NC(=O)[C@H](CC(C)C)NC(=O)[C@H](CCCNC(=N)N)NC(=O)[C@@H]2CCCN2C(=O)[C@H](CCCNC(=N)N)NC(=O)[C@@H]2CCC(=O)N2)CSSC[C@@H](C(=O)N[C@@H](Cc2ccccc2)C(=O)O)NC1=O` [Example 39, pE-R-P-R-L-C-H-K-D-P-Nle-C-F-OH] ([pGlu]RPRLCHKDP[Nle]CF-OH; disulfide 6-12), the half-life is 10.9 h.
Regarding `CCCC[C@@H]1NC(=O)[C@@H]2CCCN2C(=O)CNC(=O)[C@H](CCCCN)NC(=O)[C@H](Cc2c[nH]cn2)NC(=O)[C@@H](NC(=O)[C@H](CC(C)C)NC(=O)[C@H](CCC(=O)O)NC(=O)[C@@H]2CCCN2C(=O)[C@H](CCCNC(=N)N)NC(=O)[C@@H]2CCC(=O)N2)CSSC[C@@H](C(=O)N[C@@H](Cc2ccccc2)C(=O)O)NC1=O` [Example 40, pE-R-P-E-L-C-H-K-G-P-Nle-C-F-OH] ([pGlu]RPELCHKGP[Nle]CF-OH; disulfide 6-12), the half-life is more than 16.7 h.
Then `CCCC[C@@H]1NC(=O)[C@@H]2CCCN2C(=O)CNC(=O)[C@H](CCCCN)NC(=O)[C@H](Cc2c[nH]cn2)NC(=O)[C@@H](NC(=O)[C@H](Cc2ccc(-c3ccccc3)cc2)NC(=O)[C@H](CCCNC(=N)N)NC(=O)[C@@H]2CCCN2C(=O)[C@H](CCCNC(=N)N)NC(=O)[C@@H]2CCC(=O)N2)CSSC[C@@H](C(=O)N[C@@H](Cc2ccccc2)C(=O)O)NC1=O` [Example 41, pE-R-P-R-(4-PhF)-C-H-K-G-P-Nle-C-F-OH] ([pGlu]RPR[Bip]CHKGP[Nle]CF-OH; disulfide 6-12), with 10.5 h; and `CCCC[C@@H]1NC(=O)[C@@H]2CCCN2C(=O)CNC(=O)[C@H](CCCCN)NC(=O)[C@H](Cc2c[nH]cn2)NC(=O)[C@@H](NC(=O)[C@H](CC(=O)O)NC(=O)[C@H](CCCNC(=N)N)NC(=O)[C@@H]2CCCN2C(=O)[C@H](CCCNC(=N)N)NC(=O)[C@@H]2CCC(=O)N2)CSSC[C@@H](C(=O)N[C@@H](Cc2ccccc2)C(=O)O)NC1=O` [Example 42, pE-R-P-R-D-C-H-K-G-P-Nle-C-F-OH] ([pGlu]RPRDCHKGP[Nle]CF-OH; disulfide 6-12), with more than 16.7 h; and `CCCC[C@@H]1NC(=O)[C@@H]2CCCN2C(=O)CNC(=O)[C@H](CCCCN)NC(=O)[C@H](CCC(=O)O)NC(=O)[C@@H](NC(=O)[C@H](CC(C)C)NC(=O)[C@H](CCCNC(=N)N)NC(=O)[C@@H]2CCCN2C(=O)[C@H](CCCNC(=N)N)NC(=O)[C@@H]2CCC(=O)N2)CSSC[C@@H](C(=O)N[C@@H](Cc2ccccc2)C(=O)O)NC1=O` [Example 43, pE-R-P-R-L-C-E-K-G-P-Nle-C-F-OH] ([pGlu]RPRLCEKGP[Nle]CF-OH; disulfide 6-12), with more than 16.7 h.
Then `CCCC[C@@H]1NC(=O)[C@@H]2CCCN2C(=O)[C@H](CC(C)C)NC(=O)[C@H](CCCCN)NC(=O)[C@H](Cc2c[nH]cn2)NC(=O)[C@@H](NC(=O)[C@H](CC(C)C)NC(=O)[C@H](CCCNC(=N)N)NC(=O)[C@@H]2CCCN2C(=O)[C@H](CCCNC(=N)N)NC(=O)[C@@H]2CCC(=O)N2)CSSC[C@@H](C(=O)N[C@@H](Cc2ccccc2)C(=O)O)NC1=O` [Example 44, pE-R-P-R-L-C-H-K-L-P-Nle-C-F-OH] ([pGlu]RPRLCHKLP[Nle]CF-OH; disulfide 6-12), with 14.3 h; and `CCCC[C@@H]1NC(=O)[C@@H]2CCCN2C(=O)[C@H](CCCNC(=N)N)NC(=O)[C@H](CCCCN)NC(=O)[C@H](Cc2c[nH]cn2)NC(=O)[C@@H](NC(=O)[C@H](CC(C)C)NC(=O)[C@H](CCCNC(=N)N)NC(=O)[C@@H]2CCCN2C(=O)[C@H](CCCNC(=N)N)NC(=O)[C@@H]2CCC(=O)N2)CSSC[C@@H](C(=O)N[C@@H](Cc2ccccc2)C(=O)O)NC1=O` [Example 45, pE-R-P-R-L-C-H-K-R-P-Nle-C-F-OH] ([pGlu]RPRLCHKRP[Nle]CF-OH; disulfide 6-12), with 2.79 h.
The compound `CCCC[C@@H]1NC(=O)C2CCCCN2C(=O)CNC(=O)[C@H](CCCCN)NC(=O)[C@H](Cc2c[nH]cn2)NC(=O)[C@@H](NC(=O)[C@H](CC(C)C)NC(=O)[C@H](CCCNC(=N)N)NC(=O)[C@@H]2CCCN2C(=O)[C@H](CCCNC(=N)N)NC(=O)[C@@H]2CCC(=O)N2)CSSC[C@@H](C(=O)N[C@@H](Cc2ccccc2)C(=O)O)NC1=O` (stereo partly drawn) [Example 46, pE-R-P-R-L-C-H-K-G-(Pipecolic acid)-Nle-C-F-OH] ([pGlu]RPRLCHKG[ξPip][Nle]CF-OH; disulfide 6-12) registered a half-life of 8.37 h.
Then `CC(C)C[C@H](NC(=O)[C@H](CCCNC(=N)N)NC(=O)[C@@H]1CCCN1C(=O)[C@H](CCCNC(=N)N)NC(=O)[C@@H]1CCC(=O)N1)C(=O)N[C@H]1CSSC[C@@H](C(=O)N[C@@H](Cc2ccccc2)C(=O)O)NC(=O)[C@H](Cc2cccnc2)NC(=O)[C@@H]2CCCN2C(=O)CNC(=O)[C@H](CCCCN)NC(=O)[C@H](Cc2c[nH]cn2)NC1=O` [Example 47, pE-R-P-R-L-C-H-K-G-P-(3-PyA)-C-F-OH] ([pGlu]RPRLCHKGP[3Pal]CF-OH; disulfide 6-12), with 6.98 h.

Usually half-life stands for how long it takes for the measured level to halve. A higher half-life goes with slow decline.
